We go through twelve compounds from ChEMBL document CHEMBL1667790, “Synthesis and antioxidant activity of long chain alkyl hydroxycinnamates” (Eur J Med Chem, 2011).

The nature of assay [1]: Antioxidant activity assessed as trolox equivalents of ABTS radical scavenging activity by TEAC assay. It counts as functional.
Assay [2] relates to Radical scavenging activity. Put plainly: Antioxidant activity assessed as residual DPPH radical scavenging activity after 45 mins by spectrophotometrically. It counts as functional.

As to `CCCCCCCCCCCCCCOC(=O)/C=C/c1ccc(O)c(O)c1`, the Activity in assay [1] was 0.98 mmol. In assay [2], the IC50 amounted to 31.9 µM.

Turning to `CCCCCCCCCCCCCCOC(=O)/C=C/c1ccc(O)c(OC)c1`, the Activity in assay [1] was 1.66 mmol. In addition, in assay [2], the IC50 turned out to be 110 µM.

`CCCCCCCCCCCCCCOC(=O)/C=C/c1ccc(O)cc1`: in assay [2], the IC50 was more than 100 µM.

As for `CCCCCCCCCCCCCCCCCCOC(=O)/C=C/c1cc(OC)c(O)c(OC)c1`, the Activity in assay [1] is 1.16 mmol. Further, the IC50 in assay [2] was determined as 77.1 µM.

`O=C(O)/C=C/c1ccc(O)c(O)c1` [CAFFEIC ACID]: in assay [1], the Activity worked out at 0.95 mmol. Also, the IC50 in assay [2] worked out at 34.1 µM.

For the compound `CCCCCCCCCCCCCCOC(=O)/C=C/c1cc(OC)c(O)c(OC)c1`, the Activity in assay [1] worked out at 1.18 mmol. For the same compound, the IC50 in assay [2] is 77.2 µM.

As to `CCCCCCCCCCCCCCCCOC(=O)/C=C/c1ccc(O)c(O)c1`, the Activity in assay [1] was 0.96 mmol. Besides, the 50% inhibitory concentration (IC50) in assay [2] was determined as 33 µM.

`CCCCCCCCCCCCCCCCCCOC(=O)/C=C/c1ccc(O)c(OC)c1`: the Activity in assay [1] was 1.8 mmol. For the same compound, the IC50 in assay [2] came to 117 µM.

Take `CCCCCCCCCCCCCCCCCCOC(=O)/C=C/c1ccc(O)c(O)c1`: the Activity in assay [1] worked out at 1.02 mmol. The IC50 in assay [2] came out at 38 µM.

As for `O=C(O)/C=C/c1ccc(O)cc1` [COUMARIC ACID], the IC50 in assay [2] is more than 100 µM.

Consider `COc1cc(/C=C/C(=O)O)ccc1O` [FERULATE], for which the Activity in assay [1] came out at 1.76 mmol. For the same compound, the IC50 in assay [2] is 112 µM.

On to `COc1cc(/C=C/C(=O)O)cc(OC)c1O` [SINAPINATE], for which the Activity in assay [1] was found to be 1.14 mmol. Besides, the IC50 in assay [2] amounted to 66 µM.
